Here are results for four compounds from ChEMBL document CHEMBL1159223, “4-Dehydroecdysterone, a new ecdysteroid from the zoanthid Parazoanthus sp” (J Nat Prod, 1995).

The source made the active and inactive calls. The rule behind the calls is not given here.

This experiment relates to Candida albicans. The experiment can be described thus: Antifungal activity against Candida albicans. It counts as functional, organism-based.
In the case of `CC(C)(O)CC[C@H](O)[C@](C)(O)[C@H]1CC[C@@]2(O)C3=CC(=O)C4=C[C@@H](O)[C@@H](O)C[C@]4(C)[C@H]3CC[C@]12C`, the result was inactive.
As for `CNc1nc2c(C)ccc3nc(N(C)C)[nH]c3c-2n1`, the outcome was inactive.
For `CC(C)CC[C@H](O)[C@](C)(O)[C@H]1CC[C@@]2(O)C3=CC(=O)[C@@H]4C[C@@H](O)[C@@H](O)C[C@]4(C)[C@H]3[C@H](O)C[C@]12C` the value was “inactive”; for `CC(C)(O)CC[C@@H](O)[C@](C)(O)[C@H]1CC[C@@]2(O)C3=CC(=O)[C@@H]4C[C@@H](O)[C@@H](O)C[C@]4(C)[C@H]3CC[C@]12C`, “inactive”.
